# Earlier results as cited in patent publication US10813571B2, “Devices and methods for non-invasive monitoring of substance in a body” (TATA C[…] LIMITED, priority 2015, dated 2020).
# Details: in the user's (smoker's) body; as known in the art
compound,measurement,value
CN1CCCC1c1cccnc1 (stereo not shown) [nicotine],half-life of nicotine in the body (t1/2),1 to 2 h
